Laboratory results taken from patent US20260226105A1, “Antimicrobial And Antibiofilm Peptides Sequences With Metal-Binding Motifs” (The Trustee of the University of Pennsylvania, priority 2021, published 2026).
In brackets after ≈: the same amount, converted by molar mass. Where two headings read alike, the source gives them in different places. Ends that are not written are not given here.

Columns and labels:
[1] = test system: E. coli KpC+1812446; type: in vivo, mice
Protocol: Male Balb/C (18-20 g) mice from the Biotério Central do Campus da USP in Ribeirão Preto, São Paulo, were kept in groups of 5 per cage at 22° C. with normal cycles of light and free access to food and water. The care and use of the animals were approved by the Ethics Committee of Universidade Católica Dom Bosco number 019/2016. We assessed the ability of the peptides to protect the mice from lethal systemic infections induced with E. coli KpC+1812446. The mice (n=40) were randomly placed into eight groups of five mice each, and each mouse was injected intraperitoneally with 200 μL of saline solution containing 2×10^7 CFU of E. coli KpC+1812446. Intraperitoneal treatment with 5 or 10 mg·Kg^−1 of each peptide was initiated after one hour of infection and repeated at 24 h intervals for seven days^61. Gentamicin at 10 mg·Kg^−1 of body weight and normal saline were used as positive and negative controls, respectively.

[2] = test system: E. coli (ATCC 25922); conditions: for MIC in Cu(II) supplemented medium: ATCC 25922; for MIC: ATCC 25922, 12 h
[3] = test system: E. coli (KpC+ 1812446); conditions: MH broth, 12 h, 37° C.
[4] = test system: E. coli (KpC+ 2101123); conditions: for MIC in Cu(II) supplemented medium: Cu(II) supplemented medium (0.25 μM); for MIC: MH broth, 12 h, 37° C.
[5] = test system: K. pneumoniae (KpC+ 1825971); conditions: for MIC in Cu(II) supplemented medium: Cu(II) supplemented medium (0.25 μM); for MIC: MH broth, 12 h, 37° C.
[6] = test system: K. pneumoniae (ATCC 13883); conditions: ATCC 13883, 12 h
[7] = test system: P. aeruginosa (ATCC 27853); conditions: ATCC 27853, 12 h
[8] = test system: MRSA (3730529); conditions: 3730529, 12 h
[9] = test system: S. aureus (ATCC 25923); conditions: for MIC in Cu(II) supplemented medium: ATCC 25923; for MIC: ATCC 25923, 12 h
[10] = test system: E. coli (KpC1812446); conditions: Table 3, agent alone
[11] = test system: K. pneumoniae (ATCC13883); conditions: ATCC13883
[12] = test system: E. coli (KpC1812446); conditions: agent alone, BM2 minimal medium
[13] = test system: K. pneumoniae (ATCC13883)
[14] = test system: E. coli (KpC+1812446) planktonic cells; conditions: Table 8, planktonic cells
[15] = test system: E. coli (KpC+1812446) biofilm; conditions: Table 7, biofilm
[16] = test system: E. coli (KpC1812446); assay: microbe, parasite or virus in culture; conditions: Escherichia coli
[17] = test system: K. pneumoniae (ATCC13883); assay: microbe, parasite or virus in culture; conditions: Klebsiella pneumoniae
[18] = agent alone, BM2 minimal medium
[19] = antibiotic in combination with CM15
[20] = antibiotic in combination with GGH-CM15
[21] = antibiotic in combination with VIH-CM15
[22] = Cu(II) in MH broth, determined in our laboratory

| Compound | MIC in Cu(II) supplemented medium [2] | MIC [2] | MIC [3] | MIC in Cu(II) supplemented medium [4] | MIC [4] | MIC in Cu(II) supplemented medium [5] | MIC [5] | MIC [6] | MIC [7] | MIC [8] | MIC in Cu(II) supplemented medium [9] | MIC [9] | MIC [10] | MIC [11] | MBIC [12] | MBIC ([13]; ATCC13883) | MBIC [13, 18] | MBIC Antibiotic alone [14] | MBIC Antibiotic + Peptide [14, 19] | MBIC Antibiotic + Peptide [14, 20] | further results |
| --- | --- | --- | --- | --- | --- | --- | --- | --- | --- | --- | --- | --- | --- | --- | --- | --- | --- | --- | --- | --- | --- |
| KWKLFKKIGAVLKVL [CM15, KWKLFKKIGAVLKVL, reference compound] | – | – | – | – | – | – | – | – | – | – | – | – | – | – | – | – | – | – | – | – | mouse deaths ([1]; 10 mg·Kg^−1 intraperitoneal): led to mouse deaths after two days of treatment; in vivo toxicity ([1]; infected Balb/C mice, 5 and 10 mg·Kg^−1): high in vivo toxicity |
| GLFDVIKKVASVIGGL-NH2 [Citropin1.1, GLFDVIKKVASVIGGL-NH2, reference compound] | 10 µM | 10 µM | 10 µM | 5 µM | 5 µM | 20 µM | 20 µM | 20 µM | >40 µM | 10 µM | 3 µM | 3 µM | >40 µM | >40 µM | >40 µM | >40 µM | – | – | – | – | – |
| COc1cc(Cc2cnc(N)nc2N)cc(OC)c1OC [TRI, trimethoprim] | – | – | – | – | – | – | – | – | – | – | – | – | – | – | >220 µM | – | >220 µM | 440 µM | 55 µM | 110 µM | MBIC Antibiotic + Peptide [14, 21]: 220 µM; MBIC Antibiotic alone [15]: 440 µM; MBIC Antibiotic + Peptide [15, 19]: 440 µM; MBIC Antibiotic + Peptide [15, 20]: 220 µM; MBIC Antibiotic + Peptide [15, 21]: 220 µM; MIC [16]: > 220 µM; MIC [17]: > 220 µM |
| C[C@@H](O)[C@H]1C(=O)N2C(C(=O)O)=C(S[C@@H]3CN[C@H](C(=O)N(C)C)C3)[C@H](C)[C@H]12 [MER, meropenem] | – | – | – | – | – | – | – | – | – | – | – | – | – | – | 0.6 µM | – | >167 µM | 0.6 µM | 0.6 µM | 0.16 µM | MBIC Antibiotic + Peptide [14, 21]: 0.3 µM; MBIC Antibiotic alone [15]: 0.6 µM; MBIC Antibiotic + Peptide [15, 19]: 0.16 µM; MBIC Antibiotic + Peptide [15, 20]: 0.013 µM; MBIC Antibiotic + Peptide [15, 21]: 0.04 µM; MIC [16]: 0.6 µM (≈ 0.23 µg/mL); MIC [17]: > 167 µM |
| GGHGLFDVIKKVASVIGGL-NH2 [GGH-Citropin1.1] | 34 µM | 34 µM | 34 µM | 9 µM | 9 µM | >34 µM | >34 µM | 34 µM | >34 µM | 17 µM | 9 µM | 9 µM | >34 µM | >34 µM | >34 µM | >34 µM | – | – | – | – | – |
| CC1(C)S[C@@H]2[C@H](NC(=O)[C@H](N)c3ccccc3)C(=O)N2[C@H]1C(=O)O [AmP, ampicillin] | – | – | – | – | – | – | – | – | – | – | – | – | – | – | >183 µM | – | >183 µM | 366 µM | 366 µM | 366 µM | MBIC Antibiotic + Peptide [14, 21]: 366 µM; MBIC Antibiotic alone [15]: 366 µM; MBIC Antibiotic + Peptide [15, 19]: 366 µM; MBIC Antibiotic + Peptide [15, 20]: 366 µM; MBIC Antibiotic + Peptide [15, 21]: 366 µM; MIC [16]: > 183 µM; MIC [17]: > 183 µM |
| VIHGLFDVIKKVASVIGGL-NH2 [VIH-Citropin1.1] | >33 µM | >33 µM | 33 µM | 16 µM | 16 µM | >33 µM | >33 µM | >33 µM | >33 µM | 16 µM | 4 µM | 4 µM | >33 µM | >33 µM | >33 µM | >33 µM | – | – | – | – | – |
| O.O.O.O.O.O=S(=O)([O-])[O-].[Cu+2] [Cu(II) ions, CuSO4·5H2O] | – | – | – | – | – | – | – | – | – | – | – | – | – | – | – | – | – | – | – | – | toxic level [2, 22]: 7.8 mM; toxic level [9, 22]: 7.8 mM |
